Experimental data taken from US20230329236A1, “HERBICIDAL PYRIMIDINE DERIVATIVES” (MoA Technology Limited, priority 2020, published 2023).

Columns and labels:
Conditions in all cases: 336 h, Table 3, post-emergence, 14±1 days post application
[1] = tested on: Lolium multiflorum (LOLMU); test: Post-emergence glasshouse test, visual injury, LOLMU; type: in vivo
Experimental: (§1) Seeds of a variety of test species are grown in a sandy loam soil mixture, Lolium multiflorum (LOLMU), Amaranthus retroflexus (AMARE), Echinochloa crus-gaffi (ECHCG), Veronica persica (VERPE), Glycine max (GLXMA), Oryza sativa (ORYSA), Zea mays (ZEAMX), spring wheat (TRZAS), Ipomoea hederacea (IPOHE), Ipomoea purpurea (PHBPU), Stellaria media (STEME), Solanum nigrum (SOLNI), Digitaria sanguinalis (DIGSA), Setaria italica (SETIT), Alopecurus myosuroides (ALOMY) and Avena fatua (AVEFA).
(§2) After sowing, at growth stage BBCH 12-14 (post-emergence), the plants are sprayed with an aqueous spray solution derived from the formulation of the technical active ingredient in acetone/water (50:50) solution containing 0.5% Tween 20 (polyoxyethlyene sorbitan monolaureate, CAS RN 9005-64-5). The test compounds are applied at the required concentration of active ingredient in g/ha. The test plants are then grown in a glasshouse under controlled environmental conditions and watered regularly as required. After 14±1 days post application (for post-emergence test), the test is evaluated by assessing the percentage damage caused to the plants in comparison with the untreated plots. The biological activities for post-emergence testing are shown below (Table 3 and Table 4) as a % visual injury.

[2] = tested on: Echinochloa crus-gaffi (ECHCG); test: Post-emergence glasshouse test, visual injury, ECHCG; type: in vivo, Echinochloa crus-galli
Experimental: as §1, §2

Veronica persica (VERPE) = test: Post-emergence glasshouse test, visual injury, VERPE; type: in vivo
Experimental: as §1, §2

[3] = tested on: Amaranthus retroflexus (AMARE); test: Post-emergence glasshouse test, visual injury, AMARE; type: in vivo
Experimental: as §1, §2

Row | SMILES | pest or weed control at 500 g/ha [1] | pest or weed control at 500 g/ha [2] | pest or weed control at 500 g/ha (Veronica persica (VERPE)) | pest or weed control at 500 g/ha [3] | pest or weed control at 125 g/ha [1] | pest or weed control at 125 g/ha [2] | pest or weed control at 125 g/ha (Veronica persica (VERPE)) | pest or weed control at 125 g/ha [3] | further results
1 | Cc1cc(-c2cnc(N3CCC(O)C(C)C3)nc2C2CC2)on1 (stereo not shown) [Compound 60] | 70% | 30% | 60% | 60% | – | – | – | – | –
2 | CCc1nc(NC2CCCC2)ncc1-c1cc(C)no1 [Compound 103] | – | – | – | – | 20% | 30% | 60% | 70% | –
3 | CCN(C)c1ncc(-c2cc(C)no2)c(C(C)C)n1 [Compound 1, N-ethyl-N-methyl-5-(3-methyl-1,2-oxazol-5-yl)-4-(propan-2-yl)pyrimidin-2-amine] | 0% | 50% | 90% | 70% | 0% | 0% | 0% | 0% | –
4 | Cc1cc(-c2cnc(NCc3ccccc3F)nc2C2CC2)on1 [Compound 81] | 30% | 80% | 80% | 98% | – | – | – | – | –
5 | Cc1cc(-c2cnc(N)nc2C(F)(F)F)on1 [Compound 122] | – | – | – | – | 0% | 0% | 0% | 20% | –
6 | Cc1cc(-c2cnc(NC(C)C)nc2C(F)(F)F)on1 [Compound 115] | – | – | – | – | 0% | 0% | 60% | 20% | –
7 | Cc1cc(-c2cnc(NC3CCCCC3)nc2C(F)(F)F)on1 [Compound 125] | – | – | – | – | 20% | 50% | 0% | 70% | –
8 | Cc1cc(-c2cnc(NC(C)C)nc2C(C)C)on1 [Compound 83] | – | – | – | – | 40% | 70% | 70% | 95% | pest or weed control at 250 g/ha [1]: 50%; pest or weed control at 250 g/ha [2]: 100%; pest or weed control at 250 g/ha (Veronica persica (VERPE)): 100%; pest or weed control at 250 g/ha [3]: 98%
9 | Cc1cc(-c2cnc(NCc3cccnc3)nc2-c2ccc(C)o2)on1 [Compound 22] | 0% | 50% | 60% | 60% | – | – | – | – | –
10 | Cc1cc(-c2cnc(NC3CC3)nc2C2CC2)on1 [Compound 84] | – | – | – | – | 50% | 90% | 60% | 60% | pest or weed control at 250 g/ha [1]: 70%; pest or weed control at 250 g/ha [2]: 100%; pest or weed control at 250 g/ha (Veronica persica (VERPE)): 100%; pest or weed control at 250 g/ha [3]: 80%
11 | Cc1cc(-c2cnc(NC3CCCC3)nc2C(F)F)on1 [Compound 119] | – | – | – | – | 0% | 0% | 0% | 50% | –
12 | Cc1cc(-c2cnc(NCc3ccccn3)nc2C(C)C)on1 [Compound 39] | 0% | 20% | 80% | 70% | – | – | – | – | –
13 | Cc1cc(-c2cnc(NCc3ccc(F)cn3)nc2C(C)C)on1 [Compound 96] | – | – | – | – | – | – | – | – | pest or weed control at 62 g/ha [1]: 0%; pest or weed control at 62 g/ha [2]: 40%; pest or weed control at 62 g/ha (Veronica persica (VERPE)): 50%; pest or weed control at 62 g/ha [3]: 50%
14 | Cc1cc(-c2cnc(N3CCSCC3)nc2-c2ccc(C)o2)on1 [Compound 90] | – | – | – | – | 0% | 30% | 40% | 30% | –
15 | Cc1cc(-c2cnc(N3CCCC3)nc2-c2ccc(C)o2)on1 [Compound 58] | 20% | 10% | 0% | 0% | – | – | – | – | –
16 | Cc1cc(-c2cnc(N3CCCCC3)nc2C2CC2)on1 [Compound 31] | 0% | 30% | 0% | 70% | – | – | – | – | –
17 | Cc1cc(-c2cnc(N3CCOCC3)nc2-c2ccc(C)o2)on1 [Compound 72] | 0% | 30% | 0% | 90% | – | – | – | – | –
18 | Cc1cc(-c2cnc(N(C)C3CCCC3)nc2C(F)(F)F)on1 [Compound 112] | – | – | – | – | 20% | 0% | 0% | 20% | –

Row | SMILES | pest or weed control at 500 g/ha [1] | pest or weed control at 500 g/ha [2] | pest or weed control at 500 g/ha (Veronica persica (VERPE)) | pest or weed control at 500 g/ha [3] | pest or weed control at 125 g/ha [1] | pest or weed control at 125 g/ha [2] | pest or weed control at 125 g/ha (Veronica persica (VERPE)) | pest or weed control at 125 g/ha [3] | further results
19 | Cc1cc(-c2cnc(NCc3cccc(F)c3)nc2C2CC2)on1 [Compound 85] | – | – | – | – | 30% | 80% | 50% | 95% | pest or weed control at 250 g/ha [1]: 40%; pest or weed control at 250 g/ha [2]: 100%; pest or weed control at 250 g/ha (Veronica persica (VERPE)): 100%; pest or weed control at 250 g/ha [3]: 100%
20 | Cc1cc(-c2cnc(NC3CCCC3)nc2C)on1 [Compound 92] | – | – | – | – | 60% | 50% | 70% | 90% | –
21 | Cc1cc(-c2cnc(NC3CCCC3)nc2-c2ccc(C)o2)on1 [Compound 24] | 0% | 70% | 0% | 50% | – | – | – | – | –
22 | Cc1cc(-c2cnc(NC(C)(C)C)nc2C(C)C)on1 [Compound 5] | – | – | – | – | 60% | 70% | 100% | 100% | –
23 | Cc1cc(-c2cnc(N)nc2-c2ccc(C)o2)on1 [Compound 2, 5-(3-methyl-1,2-oxazol-5-yl)-4-(5-methylfuran-2-yl)pyrimidin-2-amine] | 40% | 10% | 0% | 30% | – | – | – | – | –
24 | Cc1cc(-c2cnc(N3CCCCCC3)nc2C(C)C)on1 [Compound 49] | 0% | 60% | 30% | 50% | – | – | – | – | –
25 | Cc1cc(-c2cnc(NCc3cccnc3)nc2C(C)(C)C)on1 [Compound 75] | 70% | 40% | 90% | 98% | – | – | – | – | –
26 | Cc1cc(-c2cnc(NCC3CCCO3)nc2-c2ccc(C)o2)on1 (stereo not shown) [Compound 86] | – | – | – | – | – | – | – | – | pest or weed control at 1000 g/ha [1]: 0%; pest or weed control at 1000 g/ha [2]: 0%; pest or weed control at 1000 g/ha (Veronica persica (VERPE)): 70%; pest or weed control at 1000 g/ha [3]: 0%
27 | COc1cc(CNc2ncc(-c3cc(C)no3)c(C(C)C)n2)cc(OC)c1 [Compound 15] | – | – | – | – | – | – | – | – | pest or weed control at 1000 g/ha [1]: 0%; pest or weed control at 1000 g/ha [2]: 30%; pest or weed control at 1000 g/ha (Veronica persica (VERPE)): 100%; pest or weed control at 1000 g/ha [3]: 60%
28 | COc1ccc(CNc2ncc(-c3onc(C)c3C)c(-c3ccco3)n2)cc1 [Compound 77] | 70% | 80% | 70% | 70% | – | – | – | – | –
29 | Cc1cc(-c2cnc(NCc3ccccc3C)nc2C(C)C)on1 [Compound 98] | – | – | – | – | – | – | – | – | pest or weed control at 62 g/ha [1]: 0%; pest or weed control at 62 g/ha [2]: 70%; pest or weed control at 62 g/ha (Veronica persica (VERPE)): 80%; pest or weed control at 62 g/ha [3]: 60%
30 | CCc1nc(NCc2ccc(F)cc2)ncc1-c1cc(C)no1 [Compound 106] | – | – | – | – | 0% | 30% | 95% | 90% | –
31 | Cc1cc(-c2cnc(NCc3ccncc3)nc2-c2ccc(C)o2)on1 [Compound 21] | 0% | 20% | 90% | 50% | – | – | – | – | –
32 | Cc1cc(-c2cnc(NCc3ccccc3F)nc2C(F)(F)F)on1 [Compound 113] | – | – | – | – | 0% | 20% | 0% | 30% | –
33 | Cc1cc(-c2cnc(N3CCC(O)CC3)nc2C2CC2)on1 [Compound 71] | 0% | 60% | 40% | 90% | – | – | – | – | –
34 | Cc1cc(-c2cnc(N3CCC(C(N)=O)CC3)nc2-c2ccc(C)s2)on1 [Compound 88] | – | – | – | – | 0% | 20% | 0% | 20% | –
35 | Cc1cc(-c2cnc(N3CCC(O)CC3)nc2C(C)C)on1 [Compound 76] | 0% | 30% | 0% | 80% | – | – | – | – | –
36 | Cc1cc(-c2cnc(NC3CCCC3)nc2C(F)(F)F)on1 [Compound 91] | – | – | – | – | 80% | 95% | 99% | 90% | –
